The results in this text go back to patent US6677357B2, “Rapamycin 29-enols” (Wyeth, priority 2001, dated 2004).

Format in all cases: cell-based
The subject of assay [1] is 3T3/H2N (ovarian—resistant to cis-platin). Briefly: Antineoplastic activity, tumor cell growth inhibition (sulforhodamine B), 3T3/H2N. The settings on record: 3T3/H2N cells, 48 hours. The text has this:
(§1) Antineoplastic activity for the compounds of this invention was confirmed by evaluating the antineoplastic activity of representative compounds of this invention (Examples 1-5) against six tumor cell lines in vitro. Briefly, tumor cells from six cell lines were placed in wells of a 96 well microtiter plate. The following tumor cell lines were used: 3T3 (ovarian), 3T3/H2N (ovarian—resistant to cis-platin), A431 (vulva epidermoid origin), SW620 (colon), SKBR3 (breast), and MDA-435 (breast). The tumors cells were grown in the presence of serial dilutions of the compound to be evaluated for 48 hours, and cell growth determined using a calorimetric procedure (sulforhrodamine B). The inhibition of growth was calculated compared to the number of cells at the time of test compound addition.

In assay [2] the test system is SW620 (colon). Nature of the assay: Antineoplastic activity, tumor cell growth inhibition (sulforhodamine B), SW620. The conditions noted are these: 48 hours; for Antineoplastic Activity (IC50): SW620 cells; for IC50: Homo sapiens, SW-620, SW620 cells.
Text: as §1

For assay [3], the system named is A431 (vulva epidermoid origin). Nature of the assay: Antineoplastic activity, tumor cell growth inhibition (sulforhodamine B), A431. The conditions noted are these: 48 hours; for Antineoplastic Activity (IC50): A431 cells; for IC50: Homo sapiens, A-431, A431 cells.
Text: as §1

Assay [4] has as its system MDA-435 (breast). Nature of the assay: Antineoplastic activity, tumor cell growth inhibition (sulforhodamine B), MDA-435. The conditions noted are these: MDA435 cells, 48 hours.
Text: as §1

Assay [5] concerns SKBR3 (breast). Nature of the assay: Antineoplastic activity, tumor cell growth inhibition (sulforhodamine B), SKBR3. The conditions noted are these: 48 hours; for Antineoplastic Activity (IC50): SKBR3 cells; for IC50: Homo sapiens, SK-BR-3, SKBR3 cells.
Text: as §1

Assay [6] has as its system 3T3 (ovarian). Briefly: Antineoplastic activity, tumor cell growth inhibition (sulforhodamine B), 3T3. The conditions noted are these: 48 hours; for Antineoplastic Activity (IC50): 3T3 cells; for IC50: Mus musculus, NIH3T3, 3T3 cells.
Text: as §1

The test system of assay [7] is SH-SY5Y cells. Nature of the assay: Neurite outgrowth (neuroregeneration) test procedure in SH-SY5Y cells. The conditions noted are these: SH-SY5Y cells pretreated with aphidicolin 5 days, mean ± SEM. The text has this:
The neuroregeneration activity for the compounds of this invention was confirmed in a standard pharmacological test procedure by evaluating rapamycin dialdehyde (Example 1) and rapamycin 29-enol (Example 2), as representative compounds of this invention, against SH-SY5Y cells in vitro [Gold et al., Exp Neurol 147:269-278, 1997]. Briefly, SH-SY5Y cells were placed in 6-well plate treated with aphidicolin for 5 days followed by the test compounds using 6-well plates. For controls, wells were untreated, or treated with nerve growth factor (NGF) alone. Test wells were treated with NGF plus Example 1 and Example 2, or rapamycin. Cells were photographed at 168 hours. Analysis of neuritic lengths was performed on photographic prints using a Houston Instrument HI-PAD digitizing tablet connected to an IBM XT computer with appropriate software (Bioquant IV, R&M Biometrics, Nashville, Tenn.). Mean values for axonal areas were compared using by ANOVA (STATVIEW, Abacus Concepts, Inc., Berkeley, Calif.). The following table summarizes the results that were obtained.

≈ marks a conversion by molar mass, not a printed value.

For “42-O-(2-Hydroxy)ethyl rapamycin 29-enol [V]”, the “Antineoplastic Activity (IC50)” value in assay [1] is 4.96 µg/mL; in assay [2] it was above 5 µg/mL; in assay [3], above 5 µg/mL; in assay [4], above 5 µg/mL; in assay [5], 2.69 µg/mL; in assay [6] it was above 5 µg/mL.

With “42-O-(2-Hydroxy)ethyl rapamycin dialdehyde [IV]”, the “Antineoplastic Activity (IC50)” value was found to be 0.72 µg/mL in assay [1]; 3.04 µg/mL in assay [2]; 2.64 µg/mL in assay [3]; 1.1 µg/mL in assay [4]; 0.36 µg/mL in assay [5]; 1.5 µg/mL in assay [6].

The term IC50 denotes the concentration needed to halve the response being measured. Higher therefore signals weaker potency in that assay. For `CO[C@@H](C[C@@H]1CC[C@@H](C)[C@](O)(C(=O)C(=O)N2CCCC[C@H]2C(=O)O[C@@H](CC(=O)[C@H](C)/C=C(\C)[C@@H](O)[C@@H](OC)C(=O)[C@H](C)C[C@H](C)/C=C/C=O)[C@H](C)CC2CC[C@@H](O)[C@H](OC)C2)O1)/C(C)=C/C=O` (stereo partly shown) [Example I, Rapamycin Dialdehyde], the IC50 in assay [1] amounted to 0.68 µg/mL (≈ 0.719 µM); in assay [2], 1.41 µg/mL (≈ 1.49 µM); in assay [3], 0.91 µg/mL (≈ 0.962 µM); in assay [4], 1.23 µg/mL (≈ 1.3 µM); in assay [5], 0.52 µg/mL (≈ 0.55 µM); in assay [6], 0.72 µg/mL (≈ 0.761 µM). For the same compound, in assay [7] (test compound + NGF), the “Mean Neurite Length after 168 h” value is reported as 229.8 ± 9.5 (n = 141) μm.

In the case of `CO[C@@H]1[C@H](O)C2(C)OOC1([C@H](C)C[C@H](C)/C=C/C=O)O2` (stereo partly drawn) [III, (2E,4S,6R)-6-[(5S,6R)-5-Hydroxy-6-methoxy-4-methyl-2,3,7-trioxabicyclo[2.2.1]hept-1-yl]-4-methylhept-2-enal], the IC50 was above 5 µg/mL in assay [1]; above 5 µg/mL in assay [2]; 3.01 µg/mL (≈ 10.5 µM) in assay [3]; 4.13 µg/mL (≈ 14.4 µM) in assay [4]; 2.05 µg/mL (≈ 7.16 µM) in assay [5]; 4.11 µg/mL (≈ 14.4 µM) in assay [6].

Consider `CO[C@H]1C[C@@H]2CC[C@@H](C)[C@@](O)(O2)C(=O)C(=O)N2CCCC[C@H]2C(=O)O[C@H]([C@H](C)C[C@@H]2CC[C@@H](O)[C@H](OC)C2)CC(=O)[C@H](C)/C=C(\C)[C@@H](O)[C@@H](OC)C(=O)[C@H](C)C[C@H](C)/C=C/C=C/C=C/1C` [Rapamycin], for which, in assay [7] (test compound + NGF), the “Mean Neurite Length after 168 h” value was 261.4 ± 13.1 (n = 119) μm.

Take “NGF: nerve growth factor (NGF), used alone as control and together with test compounds”: the “Mean Neurite Length after 168 h” value in assay [7] (NGF alone) is recorded as 196.5 ± 7.7 (n = 112) μm.

Turning to Rapamycin 29-enol [Example II], the “Antineoplastic Activity (IC50)” value in assay [1], in assay [2], in assay [3], in assay [4], in assay [5] and in assay [6] was above 5 µg/mL in each case. The “Mean Neurite Length after 168 h” value in assay [7] (test compound + NGF) is on record as 239.7 ± 10.0 (n = 155) μm.
